Our source for the Kd and binding values is publication PMC4379526 (2015).

For the experiment, the system named is OTA aptabeacon (DNA, aptamer) CGCGCTGGATCGGGTGTGGGTGGCGTAAAGGGAGCATCGGACACAGCGCG
Description: molecular beacon fluorescence, real-time PCR cycler. As to conditions: 120 mM NaCl, 5 mM KCl, 20 mM CaCl2, 10 mM Tris pH 8.5, 30 °C.

Usually Kd stands for the constant that tells how readily two partners part at equilibrium. Turning to `C[C@@H]1Cc2c(Cl)cc(C(=O)N[C@@H](Cc3ccccc3)C(=O)O)c(O)c2C(=O)O1`, the dissociation constant Kd (1 µM aptabeacon, calculated from Kd = [A][L]/[AL]) was 800 nM.
`C[C@@H]1Cc2ccc(C(=O)N[C@@H](Cc3ccccc3)C(=O)O)c(O)c2C(=O)O1`: the binding result (2 µM toxin, peak area 67–88% lower than OTA) is given as “weak”.
